Assay results taken from patent US10710984B2, “N-[(Pyrimidinylamino)propanyl]-and N-[(Pyridinylamino)-propanyl]arylcarboxamides” (Boehringer Ingelheim International GmbH, priority 2016, dated 2020).

How the values were obtained:
[1] = target: T1, human orexin 2 receptor (Homo sapiens, UniProt O43614); test: Assay B: in vitro testing of OX2R potency, OX2R IP1; type: cell-based; conditions: Table 4a; 0.5 nM Orexin A
T1 construct: CHO-K1 cells stably expressing the full-length human orexin 2 receptor and the aequorin photoprotein; expressed in transfected cells; host or cells: CHO-K1 (CHO-K1/hOx2)
T1 sequence (O43614 1-444): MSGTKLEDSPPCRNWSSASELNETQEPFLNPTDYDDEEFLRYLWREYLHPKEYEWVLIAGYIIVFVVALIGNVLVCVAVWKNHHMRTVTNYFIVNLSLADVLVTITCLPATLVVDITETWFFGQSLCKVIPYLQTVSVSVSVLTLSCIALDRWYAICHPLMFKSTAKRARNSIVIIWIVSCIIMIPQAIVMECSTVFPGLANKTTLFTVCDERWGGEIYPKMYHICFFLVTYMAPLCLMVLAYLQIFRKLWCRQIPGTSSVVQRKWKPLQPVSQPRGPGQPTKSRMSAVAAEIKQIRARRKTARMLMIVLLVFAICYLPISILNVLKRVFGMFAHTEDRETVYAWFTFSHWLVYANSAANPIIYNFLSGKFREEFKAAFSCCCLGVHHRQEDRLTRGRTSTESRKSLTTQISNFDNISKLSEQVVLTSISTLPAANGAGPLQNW
From the text: Activation of the orexin receptors expressed in cell lines results in an increase in intracellular IP3 concentration. IP1, a downstream metabolite of IP3, accumulates in cells following receptor activation and is stable in the presence of LiCl. Using Homogeneous Time-Resolved Fluorescence technology with Lumi4-Tb cryptate (commercially available from Cisbio Bioassay) and a suitable fluorescence plate reader. […] Chem. Genomics 2009, 3, 22-32. This technique is used to characterize pharmacological modification of the orexin receptors.
B. In Vitro Testing of OX2R Potency: OX2R IP1
IP1 measurements are performed in CHO-K1 cells stably expressing the full-length human orexin 2 receptor and the aequorin photoprotein. Cells are cultivated in Ham's nutrient mixture F12 medium with 10% fetal calf serum, in a 37° C., 95% humidity and 5% CO2 incubator. The CHO-K1/hOx2 cell mass is expanded to larger cell numbers. The cells are obtained as frozen cells in cryo-vials and stored until use at −150° C. The viability of the cells after thawing is >90%. In preparation for the assay, 24 hours before the assay, the cells are thawed at 37° C. and immediately diluted with cell culture medium. After centrifugation, the cell pellet is re-suspended in medium and then distributed into the assay plates with a density of 5000 cells/25 μL per well. The plates are incubated for one hour at room temperature to reduce edge effects before they are incubated for 24 hours at 37° C./5% CO2. Compounds are prepared by a 8-point serial dilution in DMSO and a final dilution step into assay buffer (HBSS with 20 mM HEPES, 0.1% BSA and 50 mM LiCl, pH 7.4) to ensure a final DMSO concentration of 1% in the assay. On the day of the assay, cells in the plate are washed twice with 60 μL assay buffer (20 μL buffer remained in the wells after washing), followed by adding 5 μL per well of compounds diluted in assay buffer. After 15 minutes of incubation at room temperature 5 μL per well of Orexin A peptide (final concentration: 0.5 nM) dissolved in assay buffer is added to the assay plate. The assay plate is incubated for 60 minutes at 37° C. Then 5 μL per well of Anti-IP1-Cryptate Tb solution and 5 μL per well of IP1-d2 dilution are added to all well of the plate and the plate is incubated for a further 60 minutes light protected at room temperature. The emission at 615 nm and 665 nm (Excitation wavelength: 320 nm) are measured using an EnVision reader (PerkinElmer). The ratio between the emission at 665 nm and 615 is calculated by the reader.
8-point four parametric non-linear curve fitting and determination of IC50 values and Hill slopes is performed using a regular analysis software e.g. AssayExplorer (Accelrys). In order to establish an agonist concentration independent parameter, Kb values are calculated using the following equation: IC50/((2+(A/EC50)^n)^1/n−1) (with A=concentration agonist, EC50=EC50 agonist, n=Hill slope agonist) (see P. Leff, I. G. Dougall, Trends Pharmacol. Sci. 1993, 14(4), 110-112).
Kb values from Assay A (OX1R) and Assay B (OX2R) can then provide a selectivity ratio which is independent of the agonist (Orexin A) concentration.

[2] = target: T2, human Orexin 1 receptor (Homo sapiens, UniProt O43613); test: Assay A: in vitro testing of OX1R potency, OX1R IP1; type: cell-based; conditions: for Kb: Table 4a, 50 nM Orexin A
T2 construct: CHO-K1 cells stably expressing the full-length human Orexin 1 receptor and the aequorin photoprotein; expressed in transfected cells; host or cells: CHO-K1 (CHO-K1/hOx1)
T2 sequence (O43613 1-425): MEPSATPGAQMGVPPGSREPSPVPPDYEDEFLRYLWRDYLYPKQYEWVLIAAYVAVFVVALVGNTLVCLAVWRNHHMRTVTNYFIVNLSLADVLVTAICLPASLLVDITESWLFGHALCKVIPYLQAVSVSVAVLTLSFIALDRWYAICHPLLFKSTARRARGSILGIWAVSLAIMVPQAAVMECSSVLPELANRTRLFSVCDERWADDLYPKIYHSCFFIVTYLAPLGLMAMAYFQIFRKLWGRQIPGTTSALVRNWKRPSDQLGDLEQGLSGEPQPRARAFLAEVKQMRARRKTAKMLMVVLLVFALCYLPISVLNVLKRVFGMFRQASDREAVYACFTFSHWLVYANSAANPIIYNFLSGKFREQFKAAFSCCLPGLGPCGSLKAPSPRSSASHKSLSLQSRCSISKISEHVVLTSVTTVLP

[3] = Assay D: assessment of log P; type: physicochemical
Description: The assay was performed following the description by S. F. Donovan and M. C. Pescatore in J. Chromatogr. A 952 (2002) 47-61.

Row | SMILES | Kb [1] | Kb [2] | chromatographic logP [3] | OX2R Kb/OX1R Kb [2]
1 | CC[C@@H](CNc1ccc(Cl)cn1)N(C)C(=O)c1cc(C)ccc1-n1nccn1 [Ex 1 in WO2016/ 034882, reference compound] | 43.2 nM |  |  | 
2 | CC[C@@H](CNc1ncc(C(F)(F)F)cn1)N(C)C(=O)c1cc(Cl)ccc1-n1nccn1 [Ex 39 in WO2016/ 034882, reference compound] | 81.5 nM |  |  | 
3 | CC[C@@H](CNc1ccc(C(F)(F)F)cn1)N(C)C(=O)c1cc(Cl)ccc1-n1nccn1 [Ex 42 in WO2016/ 034882, reference compound] | 36.2 nM |  |  | 
4 | CC[C@@H](CNc1ccc(C(F)(F)F)cn1)N(CC)C(=O)c1nc(C)ccc1-n1nccn1 [Ex 71 in WO2016/ 034882, reference compound] | 27.3 nM | 0.03 nM |  | 
5 | CC[C@@H](CNc1ncc(C(F)(F)F)cn1)N(CC)C(=O)c1nc(C)ccc1-n1nccn1 [Ex 73 in WO2016/ 034882, reference compound] | 148 nM |  |  | 
6 | CC[C@@H](CNc1ncc(C(F)(F)F)cn1)N(C)C(=O)c1nc(C)ccc1-c1ncccn1 [Ex 84 in WO2016/ 034882, reference compound] |  | 2.33 nM |  | 
7 | CC[C@@H](CNc1ncc(C(F)(F)F)cn1)N(C)C(=O)c1c(F)cccc1-n1nccn1 [Ex 91 in WO2016/ 034882, reference compound] |  | 3.96 nM |  | 
8 | CCN(C(=O)c1c(-n2nccn2)ccc(C)c1F)[C@@H](C)CNc1ncc(C(F)(F)F)cn1 [Example 1] | 21.8 nM | 0.041 nM | 2 to 4 | 
9 | CCN(C(=O)c1ccc(C)cc1-n1nccn1)[C@@H](C)CNc1ncc(C(F)(F)F)cn1 [Example 5] | 21.1 nM | 0.012 nM | 2 to 4 | 
10 | CCN(C(=O)c1cc(C)ccc1-n1nccn1)[C@@H](C)CN(C)c1ccc(Cl)cn1 [Example 9] | 4.79 nM | 0.0053 nM |  | 909
11 | CCN(C(=O)c1cc(C)ccc1-n1nccn1)[C@@H](C)CNc1ccc(Cl)cn1 [Example 10] | 5.57 nM | 0.014 nM |  | 
12 | CCN(C(=O)c1cccc(F)c1-c1ncccn1)[C@@H](C)CNc1ccc(C(F)(F)F)cn1 [Example 11] | 3.15 nM | 0.015 nM | 2 to 4 | 
13 | CCN(C(=O)c1cccc(F)c1-c1ncccn1)[C@@H](C)CNc1ccc(F)c(C(F)(F)F)n1 [Example 12] | 4.15 nM | 0.019 nM | 2 to 4 | 
14 | CCN(C(=O)c1cc(F)ccc1-c1ncccn1)[C@@H](C)CNc1ncc(C(F)(F)F)cc1F [Example 13] | 5.16 nM | 0.012 nM | 2 to 4 | 
15 | CCN(C(=O)c1cccc(F)c1-n1nccn1)[C@@H](C)CNc1ccc(Cl)cn1 [Example 17] | 11.4 nM | 0.043 nM |  | 
16 | CCN(C(=O)c1cccc(F)c1-n1nccn1)[C@@H](C)CNc1ccc(F)c(C(F)(F)F)n1 [Example 18] | 16.3 nM | 0.078 nM | 2 to 4 | 
